According to PubChem BioAssay (NCI):
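Method: 48-hour compound exposure of cells in 96-well plates, five concentrations, linear interpolation of endpoints. The concentration for 50% growth inhibition is given as GI50. TGI: concentration producing complete growth inhibition.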

Legend:
Assay in all cases: growth of human tumour cells (NCI), 48 h
786-0 renal = tested on: 786-0 renal
A498 renal = tested on: A498 renal
A549 NSCLC = tested on: A549 NSCLC
BT-549 breast = tested on: BT-549 breast
CAKI-1 renal = tested on: CAKI-1 renal
CCRF-CEM leukemia = tested on: CCRF-CEM leukemia
COLO 205 colon = tested on: COLO 205 colon
DU-145 prostate = tested on: DU-145 prostate
EKVX NSCLC = tested on: EKVX NSCLC
HCC-2998 colon = tested on: HCC-2998 colon
HCT-15 colon = tested on: HCT-15 colon
HL-60(TB) leukemia = tested on: HL-60(TB) leukemia
HOP-62 NSCLC = tested on: HOP-62 NSCLC
HOP-92 NSCLC = tested on: HOP-92 NSCLC
HS 578T breast = tested on: HS 578T breast
HT29 colon = tested on: HT29 colon
IGROV1 ovarian = tested on: IGROV1 ovarian
K-562 leukemia = tested on: K-562 leukemia
KM12 colon = tested on: KM12 colon
LOX IMVI melanoma = tested on: LOX IMVI melanoma
M14 melanoma = tested on: M14 melanoma
MALME-3M melanoma = tested on: MALME-3M melanoma
MCF7 breast = tested on: MCF7 breast
MDA-MB-231 breast = tested on: MDA-MB-231 breast
MDA-MB-435 = tested on: MDA-MB-435
MDA-MB-468 breast = tested on: MDA-MB-468 breast
MOLT-4 leukemia = tested on: MOLT-4 leukemia
NCI-H226 lung = tested on: NCI-H226 lung
NCI-H23 lung = tested on: NCI-H23 lung
NCI-H460 lung = tested on: NCI-H460 lung
NCI-H522 lung = tested on: NCI-H522 lung
NCI/ADR-RES ovarian = tested on: NCI/ADR-RES ovarian
OVCAR-3 ovarian = tested on: OVCAR-3 ovarian
OVCAR-4 ovarian = tested on: OVCAR-4 ovarian
OVCAR-5 ovarian = tested on: OVCAR-5 ovarian
OVCAR-8 ovarian = tested on: OVCAR-8 ovarian
PC-3 prostate = tested on: PC-3 prostate
RPMI-8226 leukemia = tested on: RPMI-8226 leukemia
RXF 393 renal = tested on: RXF 393 renal
SF-268 CNS = tested on: SF-268 CNS
SF-295 CNS = tested on: SF-295 CNS
SF-539 CNS = tested on: SF-539 CNS
SK-MEL-2 melanoma = tested on: SK-MEL-2 melanoma
SK-MEL-28 melanoma = tested on: SK-MEL-28 melanoma
SK-MEL-5 melanoma = tested on: SK-MEL-5 melanoma
SK-OV-3 ovarian = tested on: SK-OV-3 ovarian
SN12C renal = tested on: SN12C renal
SNB-19 CNS = tested on: SNB-19 CNS
SNB-75 CNS = tested on: SNB-75 CNS
SW-620 colon = tested on: SW-620 colon
T-47D breast = tested on: T-47D breast
U251 CNS = tested on: U251 CNS
UACC-257 melanoma = tested on: UACC-257 melanoma
UACC-62 melanoma = tested on: UACC-62 melanoma

Q: What does the source list for CCCSc1nc(Nc2ccc(S(N)(=O)=O)cc2)c(C#N)c(-c2ccc(Cl)cc2)n1?
A: GI50 (786-0 renal): 1.98 µM; TGI (786-0 renal): 4.06 µM; GI50 (A498 renal): 1.78 µM; TGI (A498 renal): 4.31 µM; GI50 (A549 NSCLC): 3.62 µM; TGI (A549 NSCLC): > 100 µM; GI50 (BT-549 breast): 30.8 µM; TGI (BT-549 breast): > 100 µM; GI50 (CAKI-1 renal): 1.94 µM; TGI (CAKI-1 renal): 4.8 µM; GI50 (CCRF-CEM leukemia): > 100 µM; TGI (CCRF-CEM leukemia): > 100 µM; GI50 (COLO 205 colon): 9.54 µM; TGI (COLO 205 colon): > 100 µM; GI50 (DU-145 prostate): 12.2 µM; TGI (DU-145 prostate): 97.1 µM; GI50 (EKVX NSCLC): 9.38 µM; TGI (EKVX NSCLC): > 100 µM; GI50 (HCC-2998 colon): 4.2 µM; TGI (HCC-2998 colon): > 100 µM; GI50 (HCT-15 colon): 2.92 µM; TGI (HCT-15 colon): > 100 µM; GI50 (HL-60(TB) leukemia): > 100 µM; TGI (HL-60(TB) leukemia): > 100 µM; GI50 (HOP-62 NSCLC): 2.35 µM; TGI (HOP-62 NSCLC): 5.67 µM; GI50 (HOP-92 NSCLC): 1.39 µM; TGI (HOP-92 NSCLC): 3.73 µM; GI50 (HS 578T breast): 2.59 µM; TGI (HS 578T breast): 8.09 µM; GI50 (HT29 colon): 6.41 µM; TGI (HT29 colon): > 100 µM; GI50 (IGROV1 ovarian): 6.03 µM; TGI (IGROV1 ovarian): > 100 µM; GI50 (K-562 leukemia): 2.85 µM; TGI (K-562 leukemia): > 100 µM; GI50 (KM12 colon): 4.17 µM; TGI (KM12 colon): > 100 µM; GI50 (LOX IMVI melanoma): 1.82 µM; TGI (LOX IMVI melanoma): 3.55 µM; GI50 (M14 melanoma): 3.48 µM; TGI (M14 melanoma): 25.3 µM; GI50 (MALME-3M melanoma): 3.07 µM; TGI (MALME-3M melanoma): 17.9 µM; GI50 (MCF7 breast): 24.3 µM; TGI (MCF7 breast): > 100 µM; GI50 (MDA-MB-231 breast): 2.83 µM; TGI (MDA-MB-231 breast): 8.9 µM; GI50 (MDA-MB-435): 7.9 µM; TGI (MDA-MB-435): > 100 µM; GI50 (MDA-MB-468 breast): 4.49 µM; TGI (MDA-MB-468 breast): 37.1 µM; GI50 (MOLT-4 leukemia): 8.11 µM; TGI (MOLT-4 leukemia): > 100 µM; GI50 (NCI-H226 lung): 2.6 µM; TGI (NCI-H226 lung): 8.66 µM; GI50 (NCI-H23 lung): 9.53 µM; TGI (NCI-H23 lung): 43 µM; GI50 (NCI-H460 lung): 3.85 µM; TGI (NCI-H460 lung): 22.4 µM; GI50 (NCI-H522 lung): 16.4 µM; TGI (NCI-H522 lung): > 100 µM; GI50 (NCI/ADR-RES ovarian): 4.89 µM; TGI (NCI/ADR-RES ovarian): 90.5 µM; GI50 (OVCAR-3 ovarian): 3.63 µM; TGI (OVCAR-3 ovarian): 19.6 µM; GI50 (OVCAR-4 ovarian): 2.23 µM; TGI (OVCAR-4 ovarian): 5.65 µM; GI50 (OVCAR-5 ovarian): 8.78 µM; TGI (OVCAR-5 ovarian): > 100 µM; GI50 (OVCAR-8 ovarian): 3.42 µM; TGI (OVCAR-8 ovarian): 16.1 µM; GI50 (PC-3 prostate): 13.4 µM; TGI (PC-3 prostate): > 100 µM; GI50 (RPMI-8226 leukemia): 3.14 µM; TGI (RPMI-8226 leukemia): > 100 µM; GI50 (RXF 393 renal): 2 µM; TGI (RXF 393 renal): 4.63 µM; GI50 (SF-268 CNS): 9 µM; TGI (SF-268 CNS): > 100 µM; GI50 (SF-295 CNS): 2.1 µM; TGI (SF-295 CNS): 4.94 µM; GI50 (SF-539 CNS): 2.57 µM; TGI (SF-539 CNS): 10 µM; GI50 (SK-MEL-2 melanoma): 13.8 µM; TGI (SK-MEL-2 melanoma): > 100 µM; GI50 (SK-MEL-28 melanoma): 36.1 µM; TGI (SK-MEL-28 melanoma): > 100 µM; GI50 (SK-MEL-5 melanoma): 6.96 µM; TGI (SK-MEL-5 melanoma): > 100 µM; GI50 (SK-OV-3 ovarian): 4.11 µM; TGI (SK-OV-3 ovarian): 67.6 µM; GI50 (SN12C renal): 2.39 µM; TGI (SN12C renal): 7.5 µM; GI50 (SNB-19 CNS): 4.04 µM; TGI (SNB-19 CNS): 20.9 µM; GI50 (SNB-75 CNS): 2.03 µM; TGI (SNB-75 CNS): 9.63 µM; GI50 (SW-620 colon): 4.67 µM; TGI (SW-620 colon): 29.6 µM; GI50 (T-47D breast): > 100 µM; TGI (T-47D breast): > 100 µM; GI50 (U251 CNS): 2.42 µM; TGI (U251 CNS): 7.81 µM; GI50 (UACC-257 melanoma): 28.5 µM; TGI (UACC-257 melanoma): > 100 µM; GI50 (UACC-62 melanoma): 5.11 µM; TGI (UACC-62 melanoma): > 100 µM
